# Source: ChEMBL document CHEMBL1201862, “PubChem BioAssay data set” (2004)
#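 All cell lines were grown in 96-well plates and treated with compound for 48 hours. At the GI50, growth is halved.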 The source made the active and inactive calls. Rule as the data show it: active = GI50 up to about 1.1 µM and inactive = higher.
# How the values were obtained:
# Experiment in all cases: NCI tumour cell line growth inhibition, 48 h
# HCC 2998 = system: HCC 2998
# K562 = system: K562
# SK-OV-3 = system: SK-OV-3
# DMS-273 = system: DMS-273
# SK-MEL-5 = system: SK-MEL-5
# OVCAR-5 = system: OVCAR-5
# HOP-92 = system: HOP-92
# HT-29 = system: HT-29
# HCT-15 = system: HCT-15
# U-251 = system: U-251
# SN12C = system: SN12C
# IGROV-1 = system: IGROV-1
# SNB-78 = system: SNB-78
# SW-620 = system: SW-620
# HCT-116 = system: HCT-116
# RXF 393 = system: RXF 393
# NCI-H226 = system: NCI-H226
# SNB-19 = system: SNB-19
# HOP-18 = system: HOP-18
# COLO 205 = system: COLO 205
# NCI-H460 = system: NCI-H460
# A549 = system: A549
# UO-31 = system: UO-31
# OVCAR-3 = system: OVCAR-3
# SF-295 = system: SF-295
# 786-0 = system: 786-0
# XF498 = system: XF498
# SNB-75 = system: SNB-75
# KM12 = system: KM12
# Malme-3M = system: Malme-3M
# DMS-114 = system: DMS-114
# UACC-62 = system: UACC-62
# SR = system: SR
# KM-20L2 = system: KM-20L2
# ACHN = system: ACHN
# MOLT-4 = system: MOLT-4
# SK-MEL-28 = system: SK-MEL-28
# TK-10 = system: TK-10
# M19-MEL = system: M19-MEL
# DLD-1 = system: DLD-1
# SF-539 = system: SF-539
# RPMI-8226 = system: RPMI-8226
# OVCAR-8 = system: OVCAR-8
# UACC-257 = system: UACC-257
# OVCAR-4 = system: OVCAR-4
# EKVX = system: EKVX
# LXFL 529 = system: LXFL 529
# NCI-H23 = system: NCI-H23
# CAKI-1 = system: CAKI-1
# SK-MEL-2 = system: SK-MEL-2
# A498 = system: A498
# HL-60 = system: HL-60
# CCRF-CEM = system: CCRF-CEM
# HOP-62 = system: HOP-62
# M14 = system: M14
smiles,measurement,setting,value
Cc1ccc(C2OC(COCc3ccc(Cl)cc3)C(OCc3ccc(Cl)cc3)C2O)cc1 (stereo not given),GI50,HCC 2998,19.3 µM (inactive)
same,GI50,K562,4.42 µM (inactive)
same,GI50,SK-OV-3,2.63 µM (inactive)
same,GI50,DMS-273,5.82 µM (inactive)
same,GI50,SK-MEL-5,12.1 µM (inactive)
same,GI50,OVCAR-5,> 100 µM (inactive)
same,GI50,HOP-92,3.18 µM (inactive)
same,GI50,HT-29,7.69 µM (inactive)
same,GI50,HCT-15,7.85 µM
same,GI50,U-251,10.5 µM (inactive)
same,GI50,SN12C,3.65 µM (inactive)
same,GI50,IGROV-1,8.89 µM (inactive)
same,GI50,SNB-78,14.3 µM (inactive)
same,GI50,SW-620,14.3 µM (inactive)
same,GI50,HCT-116,11.5 µM (inactive)
same,GI50,RXF 393,3.19 µM (inactive)
same,GI50,NCI-H226,1.36 µM (inactive)
same,GI50,SNB-19,17.8 µM (inactive)
same,GI50,HOP-18,79.4 µM (inactive)
same,GI50,COLO 205,22.8 µM (inactive)
same,GI50,NCI-H460,4.49 µM (inactive)
same,GI50,A549,9.42 µM (inactive)
same,GI50,UO-31,6.76 µM (inactive)
same,GI50,OVCAR-3,10.7 µM (inactive)
same,GI50,SF-295,12.3 µM (inactive)
same,GI50,786-0,> 10 µM (inactive)
same,GI50,XF498,10.2 µM (inactive)
same,GI50,SNB-75,4.37 µM (inactive)
same,GI50,KM12,9.38 µM (inactive)
same,GI50,Malme-3M,> 10 µM (inactive)
same,GI50,DMS-114,5.24 µM (inactive)
same,GI50,UACC-62,4.42 µM (inactive)
same,GI50,SR,3.22 µM (inactive)
same,GI50,KM-20L2,12.6 µM (inactive)
same,GI50,ACHN,15.1 µM (inactive)
same,GI50,MOLT-4,2.06 µM (inactive)
same,GI50,SK-MEL-28,31.1 µM (inactive)
same,GI50,TK-10,12.7 µM (inactive)
same,GI50,M19-MEL,11.4 µM (inactive)
same,GI50,DLD-1,9.29 µM (inactive)
same,GI50,SF-539,16 µM (inactive)
same,GI50,RPMI-8226,4.76 µM (inactive)
same,GI50,OVCAR-8,13.7 µM (inactive)
same,GI50,UACC-257,17 µM (inactive)
same,GI50,OVCAR-4,17.8 µM (inactive)
same,GI50,EKVX,13 µM (inactive)
same,GI50,LXFL 529,8.47 µM (inactive)
same,GI50,NCI-H23,6.44 µM (inactive)
same,GI50,CAKI-1,11.4 µM (inactive)
same,GI50,SK-MEL-2,11.1 µM (inactive)
CCOC(=O)C1=C(C)N(Cc2ccccc2)C(=O)C1CC#N (stereo not given),GI50,HCC 2998,> 100 µM (inactive)
same,GI50,K562,70.3 µM (inactive)
same,GI50,SK-OV-3,> 100 µM (inactive)
same,GI50,DMS-273,> 100 µM (inactive)
same,GI50,HOP-92,20.7 µM (inactive)
same,GI50,A498,> 100 µM (inactive)
same,GI50,HT-29,> 100 µM (inactive)
same,GI50,HCT-15,> 100 µM
same,GI50,U-251,> 100 µM (inactive)
same,GI50,SN12C,> 100 µM (inactive)
same,GI50,IGROV-1,> 100 µM (inactive)
same,GI50,SNB-78,37.2 µM (inactive)
same,GI50,SW-620,34 µM (inactive)
same,GI50,HCT-116,> 100 µM (inactive)
same,GI50,RXF 393,56 µM (inactive)
same,GI50,HL-60,26.7 µM (inactive)
same,GI50,SNB-19,> 100 µM (inactive)
same,GI50,HOP-18,17 µM (inactive)
same,GI50,COLO 205,> 100 µM (inactive)
same,GI50,NCI-H460,> 100 µM (inactive)
same,GI50,A549,> 100 µM (inactive)
same,GI50,UO-31,> 100 µM (inactive)
same,GI50,OVCAR-3,> 100 µM (inactive)
same,GI50,SF-295,> 100 µM (inactive)
same,GI50,786-0,> 100 µM (inactive)
same,GI50,XF498,< 0.01 µM (active)
same,GI50,CCRF-CEM,31.6 µM (inactive)
same,GI50,SNB-75,55.2 µM (inactive)
same,GI50,KM12,> 100 µM (inactive)
same,GI50,DMS-114,45.1 µM (inactive)
same,GI50,UACC-62,80 µM (inactive)
same,GI50,SR,49.8 µM (inactive)
same,GI50,KM-20L2,> 100 µM (inactive)
same,GI50,HOP-62,> 100 µM (inactive)
same,GI50,ACHN,> 100 µM (inactive)
same,GI50,MOLT-4,55.3 µM (inactive)
same,GI50,SK-MEL-28,> 100 µM (inactive)
same,GI50,M19-MEL,> 100 µM (inactive)
same,GI50,M14,> 100 µM (inactive)
same,GI50,DLD-1,56.1 µM (inactive)
same,GI50,SF-539,> 100 µM (inactive)
same,GI50,RPMI-8226,99.8 µM (inactive)
same,GI50,OVCAR-8,83.9 µM (inactive)
same,GI50,UACC-257,> 100 µM (inactive)
same,GI50,OVCAR-4,47.1 µM (inactive)
same,GI50,EKVX,> 100 µM (inactive)
same,GI50,LXFL 529,43.4 µM (inactive)
same,GI50,NCI-H23,> 100 µM (inactive)
same,GI50,CAKI-1,> 100 µM (inactive)
same,GI50,SK-MEL-2,> 100 µM (inactive)
